Assay results: ChEMBL document CHEMBL5537117, “Novel 3-hydroxypyridin-4(1H)-One derivatives as ferroptosis inhibitors with iron-chelating and reactive oxygen species scavenging activities and therapeutic effect in cisplatin-induced cytotoxicity” (Eur J Med Chem, 2024)
One block for each compound: values may come before it. Active and inactive are the calls of the source. The calls are words filed in the database; no cut-off is given here.

Assays:
HT-22 [1] = test: Anti-ferroptotic activity in erastin-induced ferroptosis in mouse HT-22 cells assessed as cell viability incubated for 24 hrs by MTT assay; assay type: functional, cell-based; details: HT-22, 24 h
HT-22 [2] = test: Anti-ferroptotic activity against Erastin-induced ferroptosis in mouse HT-22 cells assessed as inhibition of LPO accumulation at 0.2 uM measured after 24 hrs by BODIPY-C11 based flow cytometry analysis relative to control; assay type: functional; design: scale not given: the % may be the effect or the level left
[3] = Antioxidant activity assessed as trolox equivalent of ORAC radical scavenging activity at 4 uM; assay type: functional
[4] = Antioxidant activity assessed as ABTS radical scavenging activity incubated in dark for 6 mins by absorbance based microplate reader analysis; assay type: functional
HEK-293T [5] = test: Protection against cisplatin-induced cytotoxicity in HEK293T cells assessed as cell viability measured after 24 to 48 hrs by MTT assay; assay type: functional, cell-based; details: Homo sapiens
[6] = Antioxidant activity assessed as trolox equivalent of ORAC radical scavenging activity at 8 uM; assay type: functional
HT-22 [7] = test: Anti-ferroptotic activity against Erastin-induced ferroptosis in mouse HT-22 cells assessed as reduction in LIP level by measuring fluorescence intensity measured after 24 hrs by FeRhoNox-1 based flow cytometry analysis; assay type: functional, cell-based; details: dose 20-100 µM
[8] = Volume of distribution at steady state in rat at 15 mg/kg, IG measured upto 24 hrs by UPLC-MS analysis; assay type: ADME, organism-based; details: in vivo, po
[9] = AUC (0 to t) in rat at 5 mg/kg, iv measured upto 24 hrs by UPLC-MS analysis; assay type: ADME, organism-based; details: in vivo
[10] = Acid dissociation constant, pKa1 of the compound in 0.1M KCl at pH 2.0 to 10.5 by UV absorption method; assay type: physicochemical
[11] = AUC (0 to infinity) in rat at 15 mg/kg, IG measured upto 24 hrs by UPLC-MS analysis; assay type: ADME, organism-based; details: in vivo, po
[12] = Log K2 of the compound in 0.1M KCl at pH 2.0 to 10.5 by UV absorption method; assay type: physicochemical
[13] = Log K3 of the compound in 0.1M KCl at pH 2.0 to 10.5 by UV absorption method; assay type: physicochemical
[14] = Tmax in rat at 5 mg/kg, iv measured upto 24 hrs by UPLC-MS analysis; assay type: ADME, organism-based; details: in vivo
[15] = Clearance in rat at 15 mg/kg, IG measured upto 24 hrs by UPLC-MS analysis; assay type: ADME, organism-based; details: in vivo, po
[16] = AUC (0 to infinity) in rat at 5 mg/kg, iv measured upto 24 hrs by UPLC-MS analysis; assay type: ADME, organism-based; details: in vivo
[17] = Cmax in rat at 5 mg/kg, iv measured upto 24 hrs by UPLC-MS analysis; assay type: ADME, organism-based; details: in vivo
[18] = Half life in rat at 5 mg/kg, iv measured upto 24 hrs by UPLC-MS analysis; assay type: ADME, organism-based; details: in vivo
HEK-293T [19] = test: Protection against cisplatin-induced cytotoxicity in HEK293T cells assessed as reduction in attenuation of intracellular Fe2+ at 30 to 80 uM measured after 24 hrs by FeRhoNox-1 based flow cytometry analysis; assay type: functional, cell-based; details: Homo sapiens, dose 30-80 µM
[20] = AUC (0 to t) in rat at 15 mg/kg, IG measured upto 24 hrs by UPLC-MS analysis; assay type: ADME, organism-based; details: in vivo, po
[21] = Log K1 of the compound in 0.1M KCl at pH 0.9 to 2.1 by UV absorption method; assay type: physicochemical
[22] = Volume of distribution at steady state in rat at 5 mg/kg, iv measured upto 24 hrs by UPLC-MS analysis; assay type: ADME, organism-based; details: in vivo, read-out: Vdss
[23] = Tmax in rat at 15 mg/kg, IG measured upto 24 hrs by UPLC-MS analysis; assay type: ADME, organism-based; details: in vivo, po
HT-22 [24] = test: Anti-ferroptotic activity against Erastin-induced ferroptosis in mouse HT-22 cells assessed as reduction in LPO accumulation measured after 24 hrs by BODIPY-C11 based flow cytometry analysis; assay type: functional, cell-based; details: dose 20-100 µM
[25] = Metal chelating activity assessed as Fe3+ chelation
HEK-293T [26] = test: Protection against cisplatin-induced cytotoxicity in HEK293T cells assessed as reduction in LPO accumulation at 50 uM measured after 24 hrs by BODIPY-C11 based flow cytometry analysis; assay type: functional, cell-based; details: Homo sapiens
HEK-293T [27] = test: Protection against cisplatin-induced cytotoxicity in HEK293T cells assessed as reduction in ROS accumulation at 50 uM measured after 24 hrs by DCFH-DA based flow cytometry analysis; assay type: functional, cell-based; details: Homo sapiens
HT-22 [28] = test: Cytotoxicity against mouse HT-22 cells assessed as reduction in cell viability at 150 uM by MTT assay relative to control; assay type: toxicity, cell-based; details: ht-22, 150 µM
[29] = Clearance in rat at 5 mg/kg, iv measured upto 24 hrs by UPLC-MS analysis; assay type: ADME, organism-based; details: in vivo
[30] = Oral bioavailability in rat at 15 mg/kg, IG measured upto 24 hrs by UPLC-MS analysis; assay type: ADME, organism-based; details: in vivo
HT-22 [31] = test: Anti-ferroptotic activity against Erastin-induced ferroptosis in mouse HT-22 cells assessed as reduction in ROS accumulation measured after 24 hrs by DCFH-DA based flow cytometry analysis; assay type: functional, cell-based; details: dose 20-100 µM
[32] = MRT (0 to infinity) in rat at 15 mg/kg, IG measured upto 24 hrs by UPLC-MS analysis; assay type: ADME, organism-based; details: in vivo, po
[33] = Acid dissociation constant, pKa3 of the compound in 0.1M KCl at pH 2.0 to 10.5 by UV absorption method; assay type: physicochemical
[34] = Cmax in rat at 15 mg/kg, IG measured upto 24 hrs by UPLC-MS analysis; assay type: ADME, organism-based; details: in vivo, po
[35] = Acid dissociation constant, pKa2 of the compound in 0.1M KCl at pH 2.0 to 10.5 by UV absorption method; assay type: physicochemical
[36] = MRT (0 to infinity) in rat at 5 mg/kg, iv measured upto 24 hrs by UPLC-MS analysis; assay type: ADME, organism-based; details: in vivo
[37] = Half life in rat at 15 mg/kg, IG measured upto 24 hrs by UPLC-MS analysis; assay type: ADME, organism-based; details: in vivo, po

- IC50 [4]: 6.27 µM
Structure (SMILES): CCOC(=O)c1ccc(NC2CCCCC2)c(N)c1
- EC50 (HT-22 [1]): 0.191 µM
- Activity (HT-22 [2]): 100%
- Activity [3]: 6.53
- EC50 (HEK-293T [5]): 5.69 µM
- Activity [6]: 9.43
- Activity (HT-22 [7]): inactive

- Vdss [8]: 1.42 L/kg
- AUC(0-t) at 24 h [9]: 364 ng·h/mL
- pKa [10]: 2.32
- AUC [11]: 136.25 ng·h/mL
- log(activity) [12]: 26.56
- log(activity) [13]: 36.22
- Tmax [14]: 8.4 min
- CL [15]: 2.33 mL/min/kg
- AUC [16]: 365.99 ng·h/mL
- Cmax [17]: 472 ng/mL
- half-life [18]: 3.74 h
- AUC(0-t) at 24 h [20]: 120 ng·h/mL
- log(activity) [21]: 14.67
- Vd [22]: 0.07 L/kg
- Tmax [23]: 0.19 h
- Activity [25]: 18.6
- CL [29]: 0.33 mL/min/kg
- bioavailability [30]: 8.06%
- IC50 [4]: 4.35 µM
- MRT inf [32]: 8.22 h
- pKa [33]: 10.1
- Cmax [34]: 24.1 ng/mL
- pKa [35]: 6.78
- MRT inf [36]: 2.34 h
- half-life [37]: 5.83 h
Structure (SMILES): Cc1c(O)c(=O)ccn1NC(=O)/C=C/c1cccc(F)c1
- EC50 (HT-22 [1]): 14.9 µM
- Activity (HEK-293T [19]): Active
- Activity (HT-22 [24]): Dose-Dependent Effect
- Activity (HEK-293T [26]): Active
- Activity (HEK-293T [27]): Active
- Activity (HT-22 [28]): > 80%
- Activity (HT-22 [31]): Dose-Dependent Effect
- Activity [3]: 23.8
- EC50 (HEK-293T [5]): 24.9 µM
- Activity [6]: 36
- Activity (HT-22 [7]): Dose-Dependent Effect
